Assay results from patent US20120178738A1, “DIBENZO [B,F] [1,4]OXAZAPINE COMPOUNDS” (ARYX THERAPEUTICS, INC., priority 2007, published 2012).
Like-named read-outs stand apart in the source and are kept apart here.

How the values were obtained:
human 5HT1A receptors = target: T1, human 5HT1A receptors (Homo sapiens, UniProt P08908); experiment: h5-HT1A receptor radioligand binding ([3H]8OH-DPAT); details: pKi reported on a scale of 1 through 5
T1 construct: expressed in transfected cells; host or cells: Chinese hamster ovary cells (membranes)
T1 sequence (P08908 1-422): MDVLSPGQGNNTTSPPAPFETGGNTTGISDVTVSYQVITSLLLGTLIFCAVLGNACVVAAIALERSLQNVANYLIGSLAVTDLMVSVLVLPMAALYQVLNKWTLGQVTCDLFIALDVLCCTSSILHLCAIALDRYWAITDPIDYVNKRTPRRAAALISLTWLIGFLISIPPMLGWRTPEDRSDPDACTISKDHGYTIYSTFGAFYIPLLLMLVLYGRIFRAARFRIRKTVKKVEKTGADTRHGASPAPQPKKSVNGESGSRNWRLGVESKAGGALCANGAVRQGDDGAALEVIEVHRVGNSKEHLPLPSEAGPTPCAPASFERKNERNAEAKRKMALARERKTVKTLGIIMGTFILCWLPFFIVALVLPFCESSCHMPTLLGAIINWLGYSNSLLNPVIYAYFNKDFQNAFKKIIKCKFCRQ
Procedure: (§1) Consistent with standard competition radioligand binding assays, the methodology was based on displacement of radioligand from tissues (or cell lines) bearing the receptor of interest (Cheng, Y. and Prusoff, W. H. (1973). Biochem. Pharmacol. 22, 3099-3108). The measurements were based on the binding of a single concentration of radiolabeled ligand in the presence of various concentrations of unlabeled ligand.
(§2) Tissues (or cellular plasma membrane fractions) were incubated in the presence of radioligand at equilibrium and in the presence of a range of concentrations of the test compounds (which were non-radiolabeled), and the displaced radioligand was separated from the membranes by filtration. Nonspecific binding was assessed by measuring displacement of the radioligand in the presence of a compound known to block binding of the radioligand to the receptor. Finally, the concentration-response relationship for radioligand displacement (corrected for non-specific binding) was used to assess binding of the test compound to the receptor.

5-HT2A receptor = target: T2, 5-HT2A receptor (Rattus norvegicus, UniProt P14842); experiment: cell-based; details: read-out: 5HT2A (pKb) (converted)
T2 construct: Eight strips of tissue (0.5 cm long) were cut. and were mounted in 10 ml organ baths; tissue Charles River Laboratories; host or cells: rat aorta strips, endothelium removed
Procedure: The rat aorta (approximately 7 cm) was isolated and removed from the animal (male Sprague Dawley rat, Charles River Laboratories, Hollister, Calif.). The endothelium was removed mechanically. Eight strips of tissue (0.5 cm long) were cut. and were mounted in 10 ml organ baths kept at 37° C. with Krebs solution (composition in mM: NaCl (118.2), KCl (4.6), CaCl2 (2.5), MgSO4 (1.2), KH2PO4 (1.2), NaHCO3 (24.8) and dextrose (10.0)) that was constantly aerated with carbogen gas (95% O2/5% CO2) to obtain a pH of 7.4. The tissues were subjected to a resting tension of 2 g (3 times, 15 minutes apart, equilibrated in Krebs solution). The tissues were then washed 15 minutes later. Ten minutes later, the tissues were then exposed to 0.1 μM phenylephrine. At the maximal effect, 1 μM acetylcholine was added to confirm the absence of endothelium and then washed twice, 2 minutes apart.
Contractions were recorded as changes in tension from baseline and expressed as a percentage of the maximum response of the agonist (5-HT) concentration-effect curve. Agonist concentration-response curves were fitted using a nonlinear iterative fitting program (GraphPad Prism) using the relationship of Parker and Waud (Parker, R. B. and Waud, D. R. (1971). Pharmacological estimation of drug-receptor dissociation constants. Statistical evaluation. I. Agonists. J. Pharmacol. Exp. Ther., 177, 1-12). Agonist potency was expressed as EC50 (molar concentration of agonist producing 50% of the maximum response). Concentration-ratios (CRs) were determined from EC50 values in the presence and absence of antagonist and antagonist affinity estimates (pKB and pA2 values) were determined. All data are expressed as mean±s.e. mean.

[1] = target: T3, human D2s dopamine receptors (Homo sapiens, UniProt P14416); experiment: hD2S receptor radioligand binding ([3H]spiperone); details: pKi reported on a scale of 1 through 5
T3 construct: expressed in transfected cells; host or cells: Chinese hamster ovary cells (membranes)
Procedure: as §1, §2

human M1 receptors = target: T4, human M1 receptors (Homo sapiens, UniProt P11229); experiment: hM1 receptor radioligand binding ([3H]NMS); details: pKi reported on a scale of 1 through 5
T4 construct: expressed in transfected cells; host or cells: Chinese hamster ovary cells (membranes)
T4 sequence (P11229 1-460): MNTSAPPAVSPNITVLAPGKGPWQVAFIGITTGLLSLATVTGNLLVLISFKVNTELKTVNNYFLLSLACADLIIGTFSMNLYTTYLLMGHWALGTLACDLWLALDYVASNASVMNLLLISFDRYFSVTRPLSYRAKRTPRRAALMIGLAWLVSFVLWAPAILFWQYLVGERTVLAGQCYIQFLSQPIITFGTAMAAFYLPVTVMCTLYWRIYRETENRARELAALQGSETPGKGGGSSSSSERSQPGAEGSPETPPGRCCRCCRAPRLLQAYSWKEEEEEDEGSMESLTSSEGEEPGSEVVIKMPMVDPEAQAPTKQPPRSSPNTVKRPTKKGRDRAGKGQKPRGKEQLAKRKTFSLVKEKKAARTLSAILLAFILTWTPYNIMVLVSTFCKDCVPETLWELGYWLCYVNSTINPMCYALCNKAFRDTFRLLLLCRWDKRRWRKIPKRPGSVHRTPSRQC
Procedure: as §1, §2

human 5HT2C receptors = target: T5, human 5HT2C receptors (Homo sapiens, UniProt P28335); experiment: h5-HT2C receptor radioligand binding ([3H]Mesulergine); details: pKi reported on a scale of 1 through 5
T5 construct: expressed in transfected cells; host or cells: human embryo kidney cells (membranes)
T5 sequence (P28335 33-458): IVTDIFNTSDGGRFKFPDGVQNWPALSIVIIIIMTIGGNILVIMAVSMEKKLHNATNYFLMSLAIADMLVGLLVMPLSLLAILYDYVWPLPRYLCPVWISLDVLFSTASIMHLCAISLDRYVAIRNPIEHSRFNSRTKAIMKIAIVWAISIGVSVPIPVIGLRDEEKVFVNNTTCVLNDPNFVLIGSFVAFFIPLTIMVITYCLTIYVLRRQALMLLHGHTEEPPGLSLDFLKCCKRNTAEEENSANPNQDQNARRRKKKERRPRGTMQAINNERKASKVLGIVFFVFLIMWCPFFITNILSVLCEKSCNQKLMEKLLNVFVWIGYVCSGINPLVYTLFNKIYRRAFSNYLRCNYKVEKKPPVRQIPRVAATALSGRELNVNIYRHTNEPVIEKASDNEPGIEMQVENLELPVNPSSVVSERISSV
Procedure: The measurements were based on the binding of a single concentration of radiolabeled ligand in the presence of various concentrations of unlabeled ligand.
as §2

human H1 receptors = target: T6, human H1 receptors (Homo sapiens, UniProt P35367); experiment: hH1 receptor radioligand binding ([3H]Pyrilamine); details: pKi reported on a scale of 1 through 5
T6 construct: expressed in transfected cells; host or cells: Chinese hamster ovary cells (membranes)
Procedure: as §1, §2

[2] = pKb reported on a scale of 1 through 5

T2 sequence (P14842 whole entry): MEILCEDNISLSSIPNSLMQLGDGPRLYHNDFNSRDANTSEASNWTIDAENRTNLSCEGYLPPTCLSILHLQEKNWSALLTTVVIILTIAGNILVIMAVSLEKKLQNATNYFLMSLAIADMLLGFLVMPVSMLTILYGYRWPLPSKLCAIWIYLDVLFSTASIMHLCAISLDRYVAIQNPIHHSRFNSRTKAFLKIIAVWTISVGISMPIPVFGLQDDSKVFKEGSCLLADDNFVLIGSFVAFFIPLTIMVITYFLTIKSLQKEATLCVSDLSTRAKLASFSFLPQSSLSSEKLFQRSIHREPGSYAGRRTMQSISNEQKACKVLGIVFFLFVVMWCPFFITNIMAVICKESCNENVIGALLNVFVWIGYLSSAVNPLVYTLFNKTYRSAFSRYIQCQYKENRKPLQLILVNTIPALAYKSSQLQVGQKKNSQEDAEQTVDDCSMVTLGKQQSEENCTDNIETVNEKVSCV
T3 sequence (P14416 1-414 isoform P14416-2): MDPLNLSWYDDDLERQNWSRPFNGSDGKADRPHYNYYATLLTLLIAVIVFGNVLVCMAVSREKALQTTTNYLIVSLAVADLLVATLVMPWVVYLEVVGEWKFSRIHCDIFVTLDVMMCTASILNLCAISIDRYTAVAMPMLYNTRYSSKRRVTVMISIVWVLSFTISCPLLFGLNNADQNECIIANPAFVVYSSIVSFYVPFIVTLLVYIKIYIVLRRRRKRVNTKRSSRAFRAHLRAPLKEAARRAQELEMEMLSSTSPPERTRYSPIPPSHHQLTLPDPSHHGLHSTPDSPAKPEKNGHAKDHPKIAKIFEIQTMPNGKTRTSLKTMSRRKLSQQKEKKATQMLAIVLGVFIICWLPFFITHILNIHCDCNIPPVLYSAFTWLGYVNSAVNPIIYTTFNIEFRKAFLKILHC
T6 sequence (P35367 whole entry): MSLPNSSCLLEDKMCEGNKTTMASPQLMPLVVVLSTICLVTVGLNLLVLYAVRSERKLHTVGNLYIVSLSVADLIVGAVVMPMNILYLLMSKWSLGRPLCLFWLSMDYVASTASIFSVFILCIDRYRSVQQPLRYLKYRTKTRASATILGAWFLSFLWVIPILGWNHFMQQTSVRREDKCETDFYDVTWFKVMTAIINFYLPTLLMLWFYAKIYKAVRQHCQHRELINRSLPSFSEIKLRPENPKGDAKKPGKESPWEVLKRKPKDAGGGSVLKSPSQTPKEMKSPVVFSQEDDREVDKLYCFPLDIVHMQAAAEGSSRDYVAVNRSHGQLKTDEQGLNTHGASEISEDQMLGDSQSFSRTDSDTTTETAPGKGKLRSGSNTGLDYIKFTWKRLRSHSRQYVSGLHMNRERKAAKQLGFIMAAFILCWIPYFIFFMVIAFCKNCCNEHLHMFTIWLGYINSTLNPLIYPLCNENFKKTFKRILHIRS

Ki (human 5HT2C receptors) [nM] | Structure (SMILES) | Ki (human 5HT1A receptors) [nM] | Kb (5-HT2A receptor) [nM] | Ki [1] [nM] | Ki (human M1 receptors) [nM] | Ki (human H1 receptors) [nM] | Kb (5-HT2A receptor; [2]) [nM]
– | O=C(C[C@H]1CN(C2=Nc3cc(Cl)ccc3Oc3ccccc32)CCN1)N1CC[C@@H](O)C1 [GE, 2-((S)-4-((E)-8-chlorodibenzo[b,f][1,4]oxazepin-11-yl)piperazin-2-yl)-1-((R)-3-hydroxypyrrolidin-1-yl)ethanone] | 100 to 977 | 10 to 30.9 | 2510 to 9770 | 2510 to 4900 | – | –
100 to 977 | CN1CCN(C2=Nc3cc(Cl)ccc3Oc3ccccc32)CC1CC(=O)O (centres unmarked) [DO, (E)-2-(4-(8-chlorodibenzo[b,f][1,4]oxazepin-11-yl)-1-methylpiperazin-2-yl)acetic acid] | 1000 to 9770 | – | > 10000 | – | 10 to 97.7 | –
– | COC(=O)c1ccc(OC[C@H]2CN(C3=Nc4ccccc4Oc4ccc(Cl)cc43)CCN2)cc1 [D, (R,E)-methyl 4-((4-(2-chlorodibenzo[b,f][1,4]oxazepin-11-yl)piperazin-2-yl)methoxy)benzoate] | – | 31.6 to 97.7 | 631 to 2450 | > 10000 | 100 to 977 | –
– | COCCNC(=O)C[C@H]1CN(C2=Nc3cc(Cl)ccc3Oc3ccccc32)CCN1CCO [GI, (S,E)-2-(4-(8-chlorodibenzo[b,f][1,4]oxazepin-11-yl)-1-(2-hydroxyethyl)piperazin-2-yl)-N-(2-methoxyethyl)acetamide] | 1000 to 9770 | 31.6 to 97.7 | > 10000 | > 10000 | – | –
– | CN1CC[C@@H](OC(=O)C[C@H]2CN(C3=Nc4cc(Cl)ccc4Oc4ccccc43)CCN2C)C1 [ES, (R)-1-methylpyrrolidin-3-yl 2-((S)-4-((E)-8-chlorodibenzo[b,f][1,4]oxazepin-11-yl)-1-methylpiperazin-2-yl)acetate] | 1000 to 9770 | – | > 10000 | > 10000 | 10 to 97.7 | –
– | CN1CCN(C2=Nc3cc(Cl)ccc3Oc3ccccc32)C[C@@H]1CC(=O)NC(CF)CF [EV, (S,E)-2-(4-(8-chlorodibenzo[b,f][1,4]oxazepin-11-yl)-1-methylpiperazin-2-yl)-N-(1,3-difluoropropan-2-yl)acetamide] | 1000 to 9770 | 31.6 to 97.7 | 2510 to 9770 | 5010 to 9770 | 10 to 97.7 | –
– | CC[C@H](C)OC(=O)C[C@H]1CN(C2=Nc3cc(Cl)ccc3Oc3ccccc32)CCN1 [EP, sec-butyl 2-((S)-4-((E)-8-chlorodibenzo[b,f][1,4]oxazepin-11-yl)piperazin-2-yl)acetate] | 10 to 97.7 | 10 to 30.9 | 158 to 617 | 5010 to 9770 | 100 to 977 | –
– | COC(=O)C[C@H]1CN(C2=Nc3cc(Cl)ccc3Oc3ccccc32)CCN1CC1CC1 [ET, (S,E)-methyl 2-(4-(8-chlorodibenzo[b,f][1,4]oxazepin-11-yl)-1-(cyclopropylmethyl)piperazin-2-yl)acetate] | 1000 to 9770 | – | 631 to 2450 | 2510 to 4900 | 100 to 977 | > 100
– | COC(=O)COCC1CN(C2=Nc3ccccc3Oc3ccc(Cl)cc32)CCN1C (centres unmarked) [DM, (E)-methyl 2-((4-(2-chlorodibenzo[b,f][1,4]oxazepin-11-yl)-1-methylpiperazin-2-yl)methoxy)acetate] | – | 10 to 30.9 | > 10000 | – | – | –
– | CCOC(=O)c1ccc(CCC2CN(C3=Nc4cc(Cl)ccc4Oc4ccccc43)CCN2)cc1 (centres unmarked) [Compound F, (E)-ethyl 4-(2-(4-(8-chlorodibenzo[b,f][1,4]oxazepin-11-yl)piperazin-2-yl)ethyl)benzoate] | – | – | 631 to 2450 | 1260 to 2450 | 1000 to 9770 | > 100
– | CC(C)CNC(=O)CC1CN(C2=Nc3cc(Cl)ccc3Oc3ccccc32)CCN1 (centres unmarked) [B, (E)-2-(4-(8-chlorodibenzo[b,f][1,4]oxazepin-11-yl)piperazin-2-yl)-N-isobutylacetamide] | – | 31.6 to 97.7 | 158 to 617 | > 10000 | – | –
– | CCOC(=O)CC1CN(C2=Nc3ccccc3Oc3ccc(Cl)cc32)CCN1 (single isomer, unassigned) [Compound C, (E)-ethyl 2-(4-(2-chlorodibenzo[b,f][1,4]oxazepin-11-yl)piperazin-2-yl)acetate] | – | 31.6 to 97.7 | 2510 to 9770 | > 10000 | – | –
– | COC(=O)c1ccc(OCC2CN(C3=Nc4cc(Cl)ccc4Oc4ccccc43)CCN2)cc1 (centres unmarked) [G, (E)-methyl 4-((4-(8-chlorodibenzo[b,f][1,4]oxazepin-11-yl)piperazin-2-yl)methoxy)benzoate] | – | 10 to 30.9 | 2510 to 9770 | 5010 to 9770 | 1000 to 9770 | –
100 to 977 | CN1CCN(C2=Nc3cc(Cl)ccc3Oc3ccccc32)C[C@@H]1CC(=O)OCCCF [EX, (S,E)-3-fluoropropyl 2-(4-(8-chlorodibenzo[b,f][1,4]oxazepin-11-yl)-1-methylpiperazin-2-yl)acetate] | 1000 to 9770 | – | 2510 to 9770 | 5010 to 9770 | 10 to 97.7 | –

Structure (SMILES) | Ki (human 5HT2C receptors) [nM] | Ki (human 5HT1A receptors) [nM] | Kb (5-HT2A receptor) [nM] | Ki [1] [nM] | Ki (human M1 receptors) [nM] | Ki (human H1 receptors) [nM] | Kb (5-HT2A receptor; [2]) [nM]
CN1CCN(C2=Nc3cc(Cl)ccc3Oc3ccccc32)C[C@@H]1CC(=O)N(CC(F)(F)F)CC(F)(F)F [EW, (S,E)-2-(4-(8-chlorodibenzo[b,f][1,4]oxazepin-11-yl)-1-methylpiperazin-2-yl)-N,N-bis(2,2,2-trifluoroethyl)acetamide] | 1000 to 9770 | 1000 to 9770 | – | > 10000 | 5010 to 9770 | 100 to 977 | > 100
